# Measurements taken from US20190293634A1, “ISOLATED INTESTINAL MUCOSA AND USES THEREOF” (priority 2018, published 2019).
# Key:
# [1] = test system: cryopreserved human intestinal mucosa; test: Drug-induced enterotoxicity in cryopreserved human intestinal mucosa, viability by cellular ATP contents (Example 6); details: duodenum, jejunum and ileum, three donors, FIGS. 6 and 7
# Description: A vial of cryopreserved intestinal mucosa was thawed in a 37 C deg. water bath and added to 50 mL of culture medium (Universal Cryopreservation Plating Medium, In Vitro ADMET Laboratories, Columbia, Md.). The recovered mucosa pellet was suspended in a protein free incubation medium (Hepatocyte Enterocyte Incubation Medium, In Vitro ADMET Laboratories, Columbia, Md.). […] The plate was incubated at 37 deg. C. for 24 hrs after which cell viability was determined by the quantification of cellular ATP contents (ATPLite, Perkin Elmers).
# [2] = In vitro enterotoxicity assay with cryopreserved intestinal mucosa from duodenum, jejunum and ileum, cellular ATP contents (Example 8); details: human, IC50 (cytotoxicity)
# Description: (§1) The cryopreserved vials of the isolated intestinal mucosa comprising villi were removed from liquid nitrogen storage and thawed in a 37° C. water bath for approximately 2 min. The contents of each individual vial were decanted into a 50 ml conical tube containing Cryopreserved Enterocyte Recovery Medium, (In Vitro ADMET Laboratories, Columbia, Md.) that was pre-warmed in a 37° C. water bath. The thawed in vitro reagent was recovered by centrifugation at 100×g for 10 min at room temperature. After centrifugation, the supernatant was removed by decanting. A volume of 5 mL of 4° C. Hepatocyte/Enterocyte Incubation Medium, (In Vitro ADMET Laboratories, Columbia, Md.) was added to the intact pellet of enterocytes at the bottom of the conical tube followed by briskly re-pipetting 5 times with a P1000 micropipet to create an even suspension of the intestinal mucosal fragments.
# (§2) In vitro cytotoxicity evaluation with cryopreserved intestinal mucosa was performed in 96-well plates. After recovery from cryopreservation as described above, the CHIM pellet was resuspended in 5 mL of Hepatocyte Incubation Medium (IVAL, Columbia, Md.). […] The cryopreserved intestinal mucosa cultures were then incubated in a CO2 cell culture incubator kept at 37° C. in a highly humidified atmosphere of 5% CO2. After an incubation duration of 24 hrs., cell viability was determined based on cellular ATP contents as previously described.
# (§3) Data are presented as mean and standard deviation of triplicate incubations derived using the Microsoft Excel 6.0 software. Statistical analysis was performed using student's t-test with the Microsoft Excel 6.0 software, with the probability of p<0.05 to be considered statistically significant. Specific activity (pmol/min/mg protein) of each drug metabolizing enzyme pathway was determined by dividing the total metabolite formed by the incubation time and normalized to protein contents.
# [3] = test system: cryopreserved intestinal mucosa isolated from human duodenum, jejunum, and ileum; test: as above; details: for IC50: Homo sapiens, read-out: IC50 (viability by cellular ATP contents), range over regions, duodenum, jejunum, and ileum of Donor 1
# Description: as §1, §2, §3
# CYP24A1 mRNA = test: Induction of CYP24A1 transcription in cryopreserved isolated intestinal mucosa (RT-PCR); assay type: cell-based, human; details: 24-hr treatment, dose dependent
# Description: Gene transcription in the intestinal mucosa was quantified based on reverse transcription-real time PCR (RT-PCR) using the 7500 Fast Real-Time PCR system (Applied Biosystems, Foster City, Calif.). Total RNA was extracted using the mini RNeasy kit (QIAGEN, www.qiagen.com) according to instructions provided by the manufacturer for isolation of total RNA from the intestinal mucosa. At first, reverse transcription (RT) was performed with approximately 200 ng of isolated RNA using the High Capacity cDNA Reverse Transcription Kit (Thermo Fisher Scientific Inc., www.thermofisher.com). Subsequently, quantitative PCR analysis was performed on RT reactions using gene specific primer/probe sets and the Taqman Fast Universal PCR Master Mix (Thermo Fisher). The relative quantity of the target gene was compared with that of the reference transcription of […] (GAPDH) as determined by the […] and as previously described (Fahmi, Kish et al. 2010).
# P450 induction in cryopreserved metabolically competent isolated intestinal mucosa was evaluated based on gene transcription. Following a 24-hr treatment period, dose dependent induction of CYP3A4 mRNA by rifampin and 25-hydroxyD3; and, CYP24A1 mRNA by 25-hydroxyD3 were observed. For CYP3A4, the maximal fold of induction was approximately 3-fold for both inducers. Data shown for 25-hydroxyD3 in FIG. 10C.
Compound,viability in isolated intestinal mucosa (in words) [1],"IC50 at 24 h ([2]; Duodenum mucosa, 24 hrs, cellular ATP contents) [µg/mL]","IC50 at 24 h ([2]; Ileum mucosa, 24 hrs, cellular ATP contents) [µg/mL]","IC50 at 24 h ([2]; Jejunum mucosa, 24 hrs, cellular ATP contents) [µg/mL]",IC50 [3] [µg/mL],"cytotoxicity in cryopreserved intestinal mucosa (in words) ([3]; three donors, 24 hrs)",induction of CYP24A1 transcription (mRNA) (CYP24A1 mRNA),induction of CYP24A1 transcription (mRNA) (CYP24A1 mRNA; listed as 25-hydroxyD3),induction of CYP24A1 transcription (mRNA) (CYP24A1 mRNA; listed as vitamin D3),IC50 at 24 h [2] [µg/mL],cytotoxicity in cryopreserved intestinal mucosa (in words) [3]
"COc1ccc2cc([C@H](C)C(=O)O)ccc2c1 [Naproxen, naproxen]",dose-dependent decrease in viability,350,360,390,350 to 390,Dose-dependent cytotoxicity,,,,,
"C=C1/C(=C\C=C2/CCC[C@]3(C)[C@@H]([C@H](C)CCCC(C)(C)O)CC[C@@H]23)C[C@@H](O)C[C@@H]1O [1,25(OH)D3, 1,25-dihydroxyvitamin D3]",,,,,,,approximately 300 fold,Approximately 300 fold,approx. 300 fold,,
"CC(=O)Nc1ccc(O)cc1 [APAP, acetaminophen]",,,,,920 to 1180,,,,,2250,Dose-dependent cytotoxicity
